This passage reports melting point results from a melting point compilation (Tetko et al.; mined from patent text by program, amines drawn as free bases though some values may be those of a salt).

Some results are limits rather than exact numbers.

Consider `CC(=O)Nc1cc([N+](=O)[O-])ccc1OCCCN`, for which the melting point lay within 110 to 120 °C.

The compound `CC(=O)CC1(C(=O)c2ccc([N+](=O)[O-])cc2)C=CC(Cl)=C(Cl)C1` (stereo unspecified) displayed a melting point of 121 to 122 °C.

`COc1cccc(-c2ccc(C(=O)NCCOc3ccc(CC(Oc4ccc(C(C)C)cc4)C(=O)O)cc3)cc2)c1` (stereo unspecified) registered a melting point of 138 to 139 °C.

Take `COc1cc(C(C)(C)CC(C)(C)C)c(OC)cc1C(=O)CCC(=O)O`: the melting point worked out at 142 °C.

Consider `O=C(CC1CCCCCC1=O)c1ccc([N+](=O)[O-])cc1` (stereo unspecified), for which the melting point lay within 79 to 84 °C.

With `COc1ccc(C(=O)Cl)cc1I`, the melting point stood at 58 °C.

In the case of `CCCCN(CCCC)CCCOc1ccc(S(=O)(=O)c2ccccc2CC)cc1`, the melting point came to 80 °C.

`O=C1c2ccccc2C(=O)c2oc(-c3ccccc3Cl)nc21` registered a melting point of 216 °C.

`CN(Cc1ccc(NC(=O)C2=Cc3cc(Br)ccc3N(C3CC3)CC2)cc1)C1CCOCC1` gave a melting point of 133 to 136 °C.

As for `COC(=O)c1ccc(OCc2ccccc2)c(OC2CCCC2)c1`, the melting point is 58 to 59 °C.

Turning to `COc1cc(OC)c(/C=C/S(=O)(=O)Cc2ccc(OC)c(N)c2)c(OC)c1`, the melting point was 148 to 150 °C.

On to `COC(=O)c1cc(OC)c2ccccc2c1OC`, for which the melting point is 48 to 50 °C.

Take `OCCCNc1nc2cc(C(F)(F)F)c(Br)cc2n2ccnc12`: the melting point was in the range of 148 to 161 °C.

The compound `CSC(=NC(=O)OC(C)(C)C)NC(=O)OC(C)(C)C` showed a melting point of 123 to 124 °C.

With `O=C(OC1CCN(Cc2ccccc2)CC1)c1ccccc1[N+](=O)[O-]`, the melting point lay in the range of 98 to 99 °C.

For the compound `Cc1nc(C)c(Cl)c(NCc2cccc(O)c2)n1`, the melting point lay within 194 to 197 °C.

`CCCCC(Cc1ccc(OCCNC(=O)c2ccc(-c3ccc(C=O)cc3)cc2)cc1)C(=O)O` (stereo unspecified): the melting point lay in the range of 122 to 124 °C.

Regarding `Fc1cccc2[nH]c(-c3ccccc3)cc12`, the melting point is 65 to 67 °C.

The compound `CCCC(=O)OCC(=O)C1(OC(=O)CCC)CCC2C3CC(C)C4=CC(=O)CCC4(C)C3C(O)CC21C` (stereo unspecified) yielded a melting point of 103 °C.

Take `COc1ncnc(-c2cc(NS(C)(=O)=O)c(C#N)cc2F)c1C`: the melting point is 218 to 220 °C.

In turn, `CN1Cc2cncn2-c2cccc(Cl)c2C1=O` displayed a melting point of 200 to 201 °C.

With `CCOC(=O)c1cn(C2CC2)c2c(F)c(F)c(F)c(NCc3ccccc3)c2c1=O`, the melting point fell in the range of 134 to 135 °C.

Compound `CCCCCCCCCCCCC(C(=O)O)C(O)(CC(=O)O)C(=O)O` (stereo unspecified) returned a melting point of 75.4 to 76.1 °C.

On to `O=C(c1ccc(F)cc1)c1ccnc(Cl)c1`, for which the melting point was in the range of 60 to 63 °C.

Compound `CN(C)C1(Cc2ccccc2)CC=C(c2c[nH]c3ncccc23)CC1` (stereo unspecified) registered a melting point of 222 to 225 °C.

`COc1cc2c(cc1OCc1ccccc1)CCN(C(C)=O)C2`: the melting point lay in the range of 125 to 126 °C.

`Nc1nccc(OCCc2ccccc2)c1N` showed a melting point of 86 to 87 °C.

On to `Cc1cc(COc2ccc(C(=O)NC[C@@H](C(=O)NO)N3CCN(Cc4ccc(F)cc4)CC3)cc2)c2ccccc2n1`, for which the melting point came out at 167 °C.

Take `COc1cc(Br)cc(C23CC4CC(CC(C4)C2)C3)c1OCc1ccccc1`: the melting point was in the range of 89 to 91 °C.

`OCc1cc(-c2ccc3nnn(Cc4ccc5ncccc5c4)c3n2)cs1` came in with a melting point of 188 to 191 °C.

For the compound `CCCCCCCNC(=NC#N)Nc1cccnc1`, the melting point lay within 90 to 91 °C.

`CN1C2CCC1CN(c1ccc(-c3ccccc3)cn1)C2` gave a melting point of 110 °C.

`CC=COC(=O)c1c(S(=O)(=O)NC(=O)Nc2nc(C)cc(C)n2)c(C)nn1C` registered a melting point of 180 to 183 °C.

As to `COC(=O)c1ccc(Cn2nc(C(C)(C)C)cc2O)cc1`, the melting point lay in the range of 161 to 162 °C.

For `COC(=O)c1sc2ccc(N)cc2c1N`, the melting point lay within 128 to 130 °C.

In the case of `Cc1nsc(OCC(Cl)(Cl)Cl)c1[N+](=O)[O-]`, the melting point lay in the range of 60 to 61 °C.

`Fc1cc(Br)ccc1-c1ccc(Cl)cc1Cl` gave a melting point of 63 to 65 °C.

For the compound `O=C(c1ccccc1)N1CC=C(c2c[nH]c3ccc([N+](=O)[O-])cc23)CC1`, the melting point was in the range of 280 to 282 °C.

`CN(C)Cc1ccc(SC2CCNCC2)cc1` displayed a melting point of 52 °C.

`CCN(C)C(C)CN1CCc2c(c(=O)oc3cc(OC)ccc23)C1` (stereo unspecified) displayed a melting point of 102 to 104 °C.

`COC(=O)c1ccc(-c2nc(-c3ccc(C(F)(F)F)cc3)cs2)cc1` displayed a melting point of 156 to 158 °C.

In turn, `Cc1ccc(F)c(NC(=O)c2ccccc2CN2C(=O)C3(COc4cc5c(cc43)CCO5)c3ccccc32)c1` (stereo unspecified) displayed a melting point of 214 to 216 °C.

In turn, `COc1ncccc1-c1cccc(OC2SCC(OC(C)=O)C(OC(C)=O)C2OC(C)=O)c1` (stereo unspecified) had a melting point of 179 °C.

`CCOc1cccnc1CSCCN=C(NC#N)SC` registered a melting point of 98 to 99 °C.

Compound `COc1cc(O)c2c(c1C)C(=O)SCC(=O)N[C@@H](c1nc(C)no1)COC2` had a melting point of 194 to 196 °C.

For `CCOC(=O)C(O)=CC=C(SCc1ccccc1)C(=O)OCC`, the melting point is below 40 °C.

With `CCC1(CCCCN2CCN(c3cccc(Cl)c3)CC2)C(=O)Nc2ccc(C)cc21` (stereo unspecified), the melting point was 142 to 144 °C.

Regarding `Cc1ccc(-c2nnc(N3CCC(O)CC3)nc2-c2ccc(C)cc2)cc1`, the melting point lay within 167 to 168 °C.

`COc1ccc(C(=O)Nc2ccccc2)cc1NCc1cccs1` displayed a melting point of 195 to 197 °C.

Compound `COc1cccc(Cn2cc3c(-c4cccc(C(=O)NCCC#N)c4)cccc3n2)n1` displayed a melting point of 145 to 146 °C.

In turn, `CCCc1nc2c(N)nc3cc(-c4ccccc4)ccc3c2n1CCCONC(=O)C(C)C` had a melting point of 169 to 171 °C.

With `NS(=O)(=O)c1ccc(N2N=C(C(F)(F)F)CC2c2ccccc2)cc1` (stereo unspecified), the melting point was 132 to 135 °C.

`O=C(O)CCC(O)c1ccc(-c2ccccc2Cl)cc1` (stereo unspecified): the melting point was 90 to 95 °C.

With `CC(=O)N1OCC(=O)N(CCl)C1c1ccccc1` (stereo unspecified), the melting point was 171 to 172 °C.

With `CN1CC2CN(C)CC(C1)C2OC(=O)c1ccccc1` (stereo unspecified), the melting point lay within 100 to 102 °C.

Consider `Cc1ccc2cc(-c3ccccc3)ccc2n1`, for which the melting point amounted to 95 °C.

In the case of `CC1(C)OC(c2ccc(S(C)(=O)=O)cc2)=C(c2ccc(O)cc2)C1=O`, the melting point was 150 to 152 °C.

`CC(CCCCCCCCCC(=O)O)CC(=O)O` (stereo unspecified) yielded a melting point of 68.5 to 69.5 °C.

For `CCC(=O)C1(Nc2ccccc2)CCN(CCc2ccccc2)CC1`, the melting point was found to be 106 °C.

In turn, `NC(CCO)C1(c2ccc(Cl)cc2)CCC1` (stereo unspecified) registered a melting point of 98 to 99 °C.

On to `O=S(=O)(c1ccc(N2CCCCCC2)cc1)N1CC(O)CC1=S` (stereo unspecified), for which the melting point fell in the range of 138 to 139 °C.

For the compound `Oc1cc(Cl)nnc1-c1ccc(F)cc1`, the melting point lay in the range of 254 to 260 °C.

In turn, `COc1cc(C(=O)O)cc2c1C(=O)c1ccccc1CC2` had a melting point of 222 to 227 °C.

For the compound `CC#CCOc1ccc(S(=O)(=O)C(C(=O)NO)C2CCN(C(=O)OC(C)(C)C)CC2)cc1` (stereo unspecified), the melting point was 80 °C.

On to `COc1ccc(C=C(C#N)c2c[nH]c3ccccc23)cc1OC`, for which the melting point is 139 to 141 °C.

The compound `Nc1ccc(OCC2CN(c3ccccn3)C(=O)O2)cc1` (stereo unspecified) displayed a melting point of 141 to 143 °C.
